“Also recorded” adds a separate entry of the source.
Key:
[1] = test system: human BM- and UCB-derived CD34+ cells; assay: Homing of primed human CD34+ cells into BM of lethally irradiated NOD/SCID mice; assay type: in vivo
Source text: FIG. 16A-B—Panel A: C3a primes homing of murine CFU-GM and CFU-S into BM of lethally irradiated mice. Murine BM-derived Sca-1^+ cells (10^5/mouse) were transplanted into lethally irradiated syngeneic mice. At 16 hrs after transplant, cells were recovered from the femurs of transplanted animals and assayed in secondary cultures for the number of clonogenic CFU-GM (left panel) and, after transplant into secondarily irradiated animals, for the number of day-12 CFU-S (right panel). Data are pooled from three independent experiments using 10 mice each/tested cells (n=30). * p<0.0001. No HSPC cells were recovered from the marrow cavities of control animals (irradiated, not transplanted) Panel B: C3a primes homing of human CB and BM CD34^+ cells into the BM of lethally irradiated NOD/SCID mice. […] Data are pooled from independent experiments preformed on three different CB- and three different BM samples using 2-4 mice/tested cell sample. p<0.0001.
As final proof of our hypothesis and to test whether the primed cells home better to BM, we primed murine BM-derived Sca-1^+ and human BM- and UCB-derived CD34^+ cells with C3a before their transplantation into lethally irradiated mice. Sixteen hrs after transplantation, recipient mice were sacrificed and cells were recovered from their marrow cavities. […]

[2] = test system: murine BM-derived Sca-1+ cells; assay: Homing of primed murine Sca-1+ cells into BM of lethally irradiated syngeneic mice; assay type: in vivo; conditions: Sca-1+ cells preincubated with C3a 30 min, 16 hrs after transplant
Source text: FIG. 16A-B—Panel A: C3a primes homing of murine CFU-GM and CFU-S into BM of lethally irradiated mice. Murine BM-derived Sca-1^+ cells (10^5/mouse) were transplanted into lethally irradiated syngeneic mice. At 16 hrs after transplant, cells were recovered from the femurs of transplanted animals and assayed in secondary cultures for the number of clonogenic CFU-GM (left panel) and, after transplant into secondarily irradiated animals, for the number of day-12 CFU-S (right panel). Data are pooled from three independent experiments using 10 mice each/tested cells (n=30). * p<0.0001. No HSPC cells were recovered from the marrow cavities of control animals (irradiated, not transplanted) Panel B: C3a primes homing of human CB and BM CD34^+ cells into the BM of lethally irradiated NOD/SCID mice. At 16 hrs after transplantation of human CD34^+ cells (10^6/animal), mice were sacrificed and CFU-GM colonies were assayed in methylcellulose cultures. Data are pooled from independent experiments preformed on three different CB- and three different BM samples using 2-4 mice/tested cell sample. p<0.0001.
As final proof of our hypothesis and to test whether the primed cells home better to BM, we primed murine BM-derived Sca-1^+ and human BM- and UCB-derived CD34^+ cells with C3a before their transplantation into lethally irradiated mice. […]

CD34+ cells = assay: Transwell chemotaxis of CD34+ cells to an SDF-1 gradient (priming); assay type: cell-based, human
Experimental: FIG. 11A-B—Effect of SLP and its components on chemotaxis of CD34^+ cells. Panel A: Chemotaxis of BM CD34^+ cells towards medium alone (control), SDF-1 low (10 ng/mL) alone, SLP (combined SLP from three patients), SDF-1 low+SLP, and SDF-1 high (300 ng/mL). Data are pooled from quadruplicate samples from three independent experiments. *p<0.00001. Panel B: Chemotaxis of UCB CD34^+ cells to medium alone (control), SDF-1 low (10 ng/mL) alone and SDF-1 low (10 ng/mL)+uPAR (1 μg/mL) or +ICAM (1 μg/mL) or +VCAM (1 μg/mL) or +FN (2 μg/mL), or +FG (4 μg/mL) or +C3a (1 μg/mL). Data are pooled from quadruplicate samples from three independent experiments. * p<0.00001.
Chemotaxis of CD34^+ cells to medium alone (control), C3a (1 μg/ml), C3adesArg (1 μg/ml), SDF-1 low (10 ng/mL) alone, and SDF-1 low (10 ng/mL)+C3a low (0.1 μg/ml) or SDF-1 low (10 ng/mL)+C3a (1 μg/ml) or SDF-1 low (10 ng/mL)+C3adesArg (1 μg/ml). Data are pooled from quadruplicate samples from three independent experiments.* p<0.00001.
FIG. 13A-B—Chemotaxis of cells to an SDF-1 gradient is lipid raft-dependent. Panel A: Chemotaxis of CD34^+ cells to medium alone (control), SDF-1 (300 ng/mL) and SDF-1 (300 ng/mL) after preincubation for 1 hr with Amphotericin (10 μg/mL) or Nystatin (50 μg/mL). Cells were collected after chemotaxis from the lower chambers and plated in a clonogenic assay. The number of CFU-GM and BFU-E colonies formed by harvested cells is shown as a percentage of control values. Data are pooled from quadruplicate samples from three independent experiments. *p<0.0001. Panel B: Chemotaxis of CD34^+ cells towards medium alone (control), SDF-1 low (10 ng/mL) alone, or SDF-1 low with cells exposed to C3a (1 μg/mL). Cells pretreated before chemotaxis for 1 hr with MβCD (2.5 mM) are shown as gray bars. Data are pooled from quadruplicate samples from three independent experiments. * p<0.00001.
HSPCs from the mPB engraft faster compared to HSPCs aspirated from BM. To test the hypothesis that mPB-derived HSPCs are primed in their responses to SDF-1 by molecules present in SLP, we pooled together SLP from three patients and exposed BM or UCB CD34^+ cells to the SLP during chemotaxis to a low (10 ng/mL) dose of SDF-1.
To address this issue further, the formation of rafts in the cells was perturbed by MβCD, which depletes cholesterol from the cell membrane. The CD34^+ cells were pre-incubated with MβCD for 1 hr. Chemotaxis to a low dose of SDF-1 in the presence of C3a (in the upper chambers) was evaluated.

UCB and BM CD34+ cells = assay: MMP secretion and trans-Matrigel migration of primed CD34+ cells; assay type: cell-based, human; conditions: UCB and BM CD34+ cells primed with C3a

In the case of “C3a: 77 amino acid residue protein derived from the human complement C3a precursor; SEQ ID NO:1”, the “marrow homing, number of CFU-GM harvested per femur” value ([1]; 24 h after injection of NOD/SCID mice, C3a primed UCB CD34+ HSC) was “enhanced marrow homing”, the “homing of human CFU-GM into BM” value ([1]; CB and BM CD34+ cells preincubated with C3a 30 min, 16 hrs after transplantation) was “home more efficiently; also recorded: homed better; also recorded: primes homing” and the “homing of murine CFU-GM and CFU-S into BM” value [2] was “home more efficiently; also recorded: homed better; also recorded: primes homing”. The “chemotaxis of human CD34+ cells to low-threshold doses of SDF-1” value (CD34+ cells; SDF-1 low 10 ng/mL, C3a or C3adesArg 1 μg/ml) was “potentiate (prime) chemotaxis”, the “chemoattraction of CD34+ cells by the C3 cleavage fragment on its own” value (CD34+ cells; no SDF-1, 1 μg/ml) was “neither C3 cleavage fragments chemoattract” and the “MMP-9 and MMP-2 secretion” value (UCB and BM CD34+ cells) was “significantly increase”. For the same substance, the “trans-Matrigel migration toward a low dose of SDF-1” value (UCB and BM CD34+ cells) was “significantly increase”.
